According to patent publication US20080145427A1, “Dosage Forms Providing Controlled and Immediate Release of Cholesteryl Ester Transfer Protein Inhibitors and Immediate Release of Hmg-Coa Reductase Inhibitors” (priority 2005, published 2008):

Assay: Aqueous solubility of torcetrapib
Assay type: physicochemical
Settings: aqueous environment, at about 22° C. unless otherwise specified
Procedure: The CETP inhibitor may be any compound capable of inhibiting the cholesteryl ester transfer protein. The CETP inhibitor is typically “sparingly water-soluble,” which means that the CETP inhibitor has a minimum aqueous solubility of less than about 1 to 2 mg/mL at any physiologically relevant pH (e.g., pH 1-8) and at about 22° C. Many CETP inhibitors are “substantially water-insoluble,” which means that the CETP inhibitor has a minimum aqueous solubility of less than about 0.01 mg/mL (or 10 μg/mL) at any physiologically relevant pH (e.g., pH 1-8) and at about 22° C. (Unless otherwise specified, reference to aqueous solubility herein and in the claims is determined at about 22° C.) Compositions of the present invention find greater utility as the solubility of the CETP inhibitors decreases, and thus are preferred for CETP inhibitors with solubilities less than about 10 μg/mL, and even more preferred for CETP inhibitors with solubilities less than about 1 μg/mL. Many CETP inhibitors have even lower solubilities (some even less than 0.1 μg/mL), and require dramatic concentration enhancement to be sufficiently bioavailable upon oral dosing for effective plasma concentrations to be reached at practical doses. […]

solubility: < 0.04 µg/mL
Structure (SMILES): CCOC(=O)N1c2ccc(C(F)(F)F)cc2[C@@H](N(Cc2cc(C(F)(F)F)cc(C(F)(F)F)c2)C(=O)OC)C[C@H]1CC [torcetrapib, [2R,4S]-4-[(3,5-bis-trifluoromethyl-benzyl)-methoxycarbonyl-amino]-2-ethyl-6-trifluoromethyl-3,4-dihydro-2H-quinoline-1-carboxylic acid ethyl ester]
